We go through 1 compound from patent publication US20250268859A1, “OXAFURAMINE, (1R)-N-ETHYL-1-[(2R)-OXOLAN-2-YL]-2-[…], HYDROCHLORIDE AND DERIVATIVES THEREOF FOR TREATING ALZHEIMER'S DISEASE (AD), […] […], […] WITH LEWY BODIES (DLB), MIXED […], FRON[…] DEGENERATION (FTLD), AND PARKINSON'S DISEASE (PD)” (NLS Pharmaceutics AG, priority 2021, published 2025).

The target in assay [1] is T1, DAT (h) (Homo sapiens, UniProt Q01959).
T1 construct: Eurofins (contract panel)
As to the kind of experiment: Radioligand binding panel, DAT (h) (antagonist radioligand). As to conditions: % inhibition of control specific binding. As to the method: (§1) Oxafuramine is tested at 10^−5 M, calculated as a % inhibition of control specific binding of a radioactively labeled ligand specific for each target.
(§2) This binding profile panel was broadly defined with roughly an equal number of selective, central and peripheral therapeutically relevant targets, including native animal tissues, radioligands and specific enzymes involved in cell cycle regulation in accordance with Eurofins Standard Operating Procedure (www.eurofins.fr).
(§3) For radioligand binding experiments, the half maximal inhibitory concentration (IC50) and the half maximal effective concentration (EC50) values were determined (via computer software) by nonlinear regression analysis of the competition curves using Hill equation curve fitting. The inhibition constants (Ki) were calculated using the Cheng-Prusoff equation (Ki=IC50/(1+(L/KD)), where L is the concentration of radioligand in the assay, and KD is the affinity of the radioligand for the receptor.
(§4) The results are expressed as a % control specific binding ([measured specific binding/control specific binding]×100) and as a % inhibition of control specific binding (100−[(measured specific binding/control specific binding)×100]) obtained in the presence of the test compounds. […]

Assay [2] addresses T2, M5 (h) (Homo sapiens, UniProt P08912).
T2 construct: Eurofins (contract panel)
T2 sequence (P08912 1-532): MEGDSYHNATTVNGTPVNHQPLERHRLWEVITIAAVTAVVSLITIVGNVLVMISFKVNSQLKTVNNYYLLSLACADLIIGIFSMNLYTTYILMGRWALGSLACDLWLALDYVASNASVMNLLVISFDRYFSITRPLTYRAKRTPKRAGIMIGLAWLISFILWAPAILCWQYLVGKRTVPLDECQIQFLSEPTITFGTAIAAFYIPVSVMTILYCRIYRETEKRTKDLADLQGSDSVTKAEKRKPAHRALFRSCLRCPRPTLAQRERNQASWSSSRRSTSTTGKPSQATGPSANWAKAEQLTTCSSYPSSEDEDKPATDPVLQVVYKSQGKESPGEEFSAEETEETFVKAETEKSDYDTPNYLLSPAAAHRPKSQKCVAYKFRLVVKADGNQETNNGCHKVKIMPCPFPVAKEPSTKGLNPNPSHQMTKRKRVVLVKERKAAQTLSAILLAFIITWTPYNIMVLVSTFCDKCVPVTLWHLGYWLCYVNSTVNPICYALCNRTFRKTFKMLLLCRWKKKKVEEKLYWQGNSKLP
As to the kind of experiment: Radioligand binding panel, M5 (h) (antagonist radioligand). The conditions noted are these: % inhibition of control specific binding. As to the method: as §1, §2, §3, §4

The target in assay [3] is T3, GABA-A1 (Homo sapiens, UniProt P14867+P47870).
T3 construct: Eurofins (contract panel)
T3 sequence (P14867 28-456): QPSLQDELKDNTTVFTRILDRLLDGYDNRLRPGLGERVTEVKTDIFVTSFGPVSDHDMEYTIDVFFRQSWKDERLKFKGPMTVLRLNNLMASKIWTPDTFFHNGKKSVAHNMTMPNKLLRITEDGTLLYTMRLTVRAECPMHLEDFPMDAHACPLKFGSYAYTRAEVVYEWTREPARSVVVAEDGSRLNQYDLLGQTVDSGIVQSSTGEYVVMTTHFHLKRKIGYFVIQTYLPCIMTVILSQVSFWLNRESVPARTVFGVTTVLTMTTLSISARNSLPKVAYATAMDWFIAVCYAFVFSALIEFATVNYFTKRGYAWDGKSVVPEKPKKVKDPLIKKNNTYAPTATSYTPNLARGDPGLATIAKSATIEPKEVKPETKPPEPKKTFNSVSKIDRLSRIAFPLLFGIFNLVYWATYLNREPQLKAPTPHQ
T3 sequence (P47870 25-512 limits assumed): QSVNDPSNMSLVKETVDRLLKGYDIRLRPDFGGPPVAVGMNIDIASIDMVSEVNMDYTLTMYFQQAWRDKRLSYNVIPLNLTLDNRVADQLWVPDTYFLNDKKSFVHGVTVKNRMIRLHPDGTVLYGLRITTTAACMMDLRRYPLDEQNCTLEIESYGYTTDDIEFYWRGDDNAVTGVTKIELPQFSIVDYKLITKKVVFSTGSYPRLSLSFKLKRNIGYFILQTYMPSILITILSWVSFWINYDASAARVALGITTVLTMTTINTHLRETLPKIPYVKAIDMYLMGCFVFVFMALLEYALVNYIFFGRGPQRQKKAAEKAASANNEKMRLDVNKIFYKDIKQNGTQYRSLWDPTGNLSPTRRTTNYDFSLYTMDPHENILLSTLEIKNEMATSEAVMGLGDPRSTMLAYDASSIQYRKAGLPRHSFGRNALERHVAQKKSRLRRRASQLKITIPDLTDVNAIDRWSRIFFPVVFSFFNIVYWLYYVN
T3 sequence (P18507 40-475 partner): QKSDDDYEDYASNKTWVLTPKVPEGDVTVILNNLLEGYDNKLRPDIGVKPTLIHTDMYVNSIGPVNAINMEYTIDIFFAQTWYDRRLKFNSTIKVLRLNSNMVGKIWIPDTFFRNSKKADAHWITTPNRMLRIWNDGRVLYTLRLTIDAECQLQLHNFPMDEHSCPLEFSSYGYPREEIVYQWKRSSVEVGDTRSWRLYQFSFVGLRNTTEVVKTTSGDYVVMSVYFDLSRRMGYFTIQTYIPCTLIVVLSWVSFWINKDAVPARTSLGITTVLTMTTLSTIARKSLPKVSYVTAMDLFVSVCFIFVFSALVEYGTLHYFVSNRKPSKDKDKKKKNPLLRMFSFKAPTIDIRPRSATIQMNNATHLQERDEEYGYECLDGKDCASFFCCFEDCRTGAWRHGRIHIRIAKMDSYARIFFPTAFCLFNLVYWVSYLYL
Put plainly: Radioligand binding panel, GABA-A1 (antagonist radioligand). The conditions noted are these: 10^−5 M; % inhibition of control specific binding. As to the method: as §1, §2, §3, §4

Assay [4] concerns the target T4, Relaxin-3 (RXFP3) (h) (Homo sapiens, UniProt Q9NSD7).
T4 sequence (Q9NSD7 1-469): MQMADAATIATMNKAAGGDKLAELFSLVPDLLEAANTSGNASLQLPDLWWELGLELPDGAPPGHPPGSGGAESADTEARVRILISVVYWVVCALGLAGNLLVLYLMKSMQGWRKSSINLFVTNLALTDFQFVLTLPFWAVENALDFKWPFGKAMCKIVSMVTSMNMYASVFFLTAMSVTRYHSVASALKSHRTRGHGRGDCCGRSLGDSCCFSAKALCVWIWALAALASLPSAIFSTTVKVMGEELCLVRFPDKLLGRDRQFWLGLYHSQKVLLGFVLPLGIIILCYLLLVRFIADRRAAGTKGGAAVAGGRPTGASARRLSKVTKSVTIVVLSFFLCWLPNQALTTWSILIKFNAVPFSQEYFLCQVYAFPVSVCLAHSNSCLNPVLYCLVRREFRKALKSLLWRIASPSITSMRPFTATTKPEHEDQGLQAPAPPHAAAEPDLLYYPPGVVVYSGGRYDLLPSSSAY
As to the kind of experiment: Relaxin-3 (RXFP3) (h) (agonist radioligand). The assay is classed as binding. As to the method:
as §1
The results are expressed as a % control specific binding ([measured specific binding/control specific binding]×100) and as a % inhibition of control specific binding (100−[(measured specific binding/control specific binding)×100]) obtained in the presence of the test compounds.
Results showing an inhibition (or stimulation) lower than 25% are not considered significant and mostly attributable to variability of the signal around the control level. […]
• 1. cAMP Hunter cell lines were expanded from freezer stocks according to standard procedures. • 2. Cells were seeded in a total volume of 20 μL into white walled, 384-well microplates and incubated at 37° C. for the appropriate time prior to testing. • 3. cAMP modulation was determined using the DiscoverX HitHunter cAMP XS+ assay. […]
[formula] • 6. For Gi positive allosteric mode assays, percentage modulation is calculated using the following formula: % Modulation=100%×(1−(mean RLU of test sample−mean RLU of MAX control) /(mean RLU of EC20 control−mean RLU of MAX control)). • 7. […]

T1 sequence (Q01959 whole entry): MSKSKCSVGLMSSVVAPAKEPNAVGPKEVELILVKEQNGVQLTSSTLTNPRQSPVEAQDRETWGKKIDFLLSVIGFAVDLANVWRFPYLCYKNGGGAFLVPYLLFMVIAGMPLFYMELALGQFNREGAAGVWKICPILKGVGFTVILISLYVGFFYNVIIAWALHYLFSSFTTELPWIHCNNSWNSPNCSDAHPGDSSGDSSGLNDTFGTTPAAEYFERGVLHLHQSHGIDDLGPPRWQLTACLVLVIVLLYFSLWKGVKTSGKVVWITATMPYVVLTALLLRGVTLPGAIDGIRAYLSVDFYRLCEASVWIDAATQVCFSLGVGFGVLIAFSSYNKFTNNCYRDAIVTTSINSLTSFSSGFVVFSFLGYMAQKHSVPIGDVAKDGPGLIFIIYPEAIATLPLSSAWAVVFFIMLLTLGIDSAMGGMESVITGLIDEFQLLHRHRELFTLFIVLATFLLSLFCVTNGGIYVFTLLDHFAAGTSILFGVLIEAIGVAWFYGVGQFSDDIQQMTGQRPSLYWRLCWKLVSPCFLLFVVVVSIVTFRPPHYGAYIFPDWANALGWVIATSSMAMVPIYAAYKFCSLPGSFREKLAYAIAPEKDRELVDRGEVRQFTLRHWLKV

Regarding `CCN[C@H](Cc1ccccc1)[C@H]1CCCO1` [Oxafuramine, (1R)—N-ethyl-1-[(2R)-oxolan-2-yl]-2-phenylethanamine], the inhibition at 10 µM is 94.1% in assay [1] (10^−5 M), about 25% in assay [2] (10^−5 M), 19.2% in assay [3] and 16.5% in assay [4] (10^−5 M). Moreover, the “% Inhibition at 10^−5M, DAT (h) (antagonist radioligand)” value in assay [1] was “appreciable potencies”. In addition, in assay [2], the “% Inhibition at 10^−5M, M5 (h) (antagonist radioligand)” value was 25.4%. Besides, the “% Inhibition at 10^−5M, Relaxin-3 (RXFP3) (h) (agonist radioligand)” value in assay [4] is given as “weakly target”.
